Measured values reported in US9433621B2, “Substituted pyridine and pyrimidine derivatives and their use in treating viral infections” (Merck Sharp & Dohme Corp., priority 2010, dated 2016).

Each compound was assayed on HCV replicon (assay: Cell-Based HCV Replicon Assay). Settings: Hepatitis C virus; HCV Replicon assay, EC90 range, Table VI; read-out: EC90.
In short: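 Replicon cells, 5000/well, treated 3 days with 10 serial 2-fold dilutions (top 25 μM to 1 μM) in 0.5% DMSO, 10% FBS. Replicon RNA measured by multiplex Taqman RT-PCR (NS5B amplicon, GAPDH control); EC50/EC90 = concentration giving ΔCT of 1/3.2 over baseline from sigmoid fit.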

SMILES | EC90 [nM]
Cc1nc(NCc2c(F)cc(F)cc2F)nc(N[C@@H]2C[C@H](C(C)(C)S(C)(=O)=O)[C@@H](O)[C@H]2O)c1-c1nc2c(C)nccc2s1 [Example 5063] | < 500
Cc1nc(NC2CCC2)nc(N[C@@H]2C[C@H](C(C)(C)S(C)(=O)=O)[C@@H](O)[C@H]2O)c1-c1nc2c(C3CC3)nccc2s1 [Example 5064] | < 500
Cc1nc(NCc2c(F)cc(F)cc2F)nc(N[C@@H]2C[C@H](C(C)(C)S(C)(=O)=O)[C@@H](O)[C@H]2O)c1-c1nc2c(C3CC3)nccc2s1 [Example 5065] | < 500
Cc1nc(NCC2CC2)nc(N[C@@H]2C[C@H](C(C)(C)S(=O)(=O)c3ccccc3)[C@@H](O)[C@H]2O)c1-c1nc2c(C)nccc2s1 [Example 5066] | < 500
Cc1nc(NCC(F)(F)F)nc(N[C@@H]2C[C@H](C(C)(C)S(=O)(=O)c3ccccc3)[C@@H](O)[C@H]2O)c1-c1nc2c(C)nccc2s1 [Example 5067] | < 500
Cc1nc(NCC(C)(C)C)nc(N[C@@H]2C[C@H](C(C)(C)S(=O)(=O)c3ccccc3)[C@@H](O)[C@H]2O)c1-c1nc2c(C)nccc2s1 [Example 5068] | < 500
Cc1nc(N)nc(N[C@@H]2C[C@H](C(C)(C)S(C)(=O)=O)[C@@H](O)[C@H]2O)c1-c1nc2c(C)nccc2s1 [Example 5069] | < 500
Cc1nc(NCC2CC2)nc(N[C@@H]2C[C@H](C(C)(C)S(C)(=O)=O)[C@@H](O)[C@H]2O)c1-c1nc2c(C)nccc2s1 [Example 5070] | < 500
COCCNc1nc(C)c(-c2nc3c(C)nccc3s2)c(N[C@@H]2C[C@H](C(C)(C)S(C)(=O)=O)[C@@H](O)[C@H]2O)n1 [Example 5071] | < 500
Cc1nc(N)nc(N[C@@H]2C[C@H](C(C)(C)S(C)(=O)=O)[C@@H](O)[C@H]2O)c1-c1nc2c(C3CC3)nccc2s1 [Example 5072] | < 500
Cc1nc(NCC2CC2)nc(N[C@@H]2C[C@H](C(C)(C)S(C)(=O)=O)[C@@H](O)[C@H]2O)c1-c1nc2c(C3CC3)nccc2s1 [Example 5073] | < 500
Cc1nc(NCC(C)(C)C)nc(N[C@@H]2C[C@H](C(C)(C)S(C)(=O)=O)[C@@H](O)[C@H]2O)c1-c1nc2c(C3CC3)nccc2s1 [Example 5074] | < 500
COCCNc1nc(C)c(-c2nc3c(C4CC4)nccc3s2)c(N[C@@H]2C[C@H](C(C)(C)S(C)(=O)=O)[C@@H](O)[C@H]2O)n1 [Example 5075] | < 500
Cc1nc(N)nc(N[C@@H]2C[C@H](C(C)(C)S(=O)(=O)c3ccccc3)[C@@H](O)[C@H]2O)c1-c1nc2c(C)nccc2s1 [Example 5076] | < 500
COCCNc1nc(C)c(-c2nc3c(C)nccc3s2)c(N[C@@H]2C[C@H](C(C)(C)S(=O)(=O)c3ccccc3)[C@@H](O)[C@H]2O)n1 [Example 5077] | < 500
Cc1nc(NCC(F)(F)F)nc(N[C@@H]2C[C@H](C(C)(C)S(C)(=O)=O)[C@@H](O)[C@H]2O)c1-c1nc2c(C)nccc2s1 [Example 5078] | < 500
Cc1nc(NCC(F)(F)F)nc(N[C@@H]2C[C@H](C(C)(C)S(C)(=O)=O)[C@@H](O)[C@H]2O)c1-c1nc2c(C3CC3)nccc2s1 [Example 5079] | < 500
Cc1nc(NCC2CC2)nc(N[C@@H]2C[C@H](C(C)(C)S(=O)(=O)c3ccccc3)[C@@H](O)[C@H]2O)c1-c1nc2c(N)nccc2s1 [Example 5080] | < 500
Cc1nc(N)nc(N[C@@H]2C[C@H](C(C)(C)S(=O)(=O)c3ccccc3)[C@@H](O)[C@H]2O)c1-c1nc2c(N)nccc2s1 [Example 5081] | < 500
Cc1nc(NCc2c(F)cccc2F)nc(N[C@@H]2C[C@H](NC(=O)NCc3ccccc3F)[C@@H](O)[C@H]2O)c1-c1nc2c(C3CC3)nccc2s1 [Example 5082] | 500 to 5000
Cc1nc(NCc2c(F)cccc2F)nc(N[C@@H]2C[C@H](NC(=O)NC(C)C)[C@@H](O)[C@H]2O)c1-c1nc2c(C3CC3)nccc2s1 [Example 5083] | < 500
Cc1nc(NCc2c(F)cccc2F)nc(N[C@@H]2C[C@H](NC(=O)OCc3nccs3)[C@@H](O)[C@H]2O)c1-c1nc2c(C3CC3)nccc2s1 [Example 5084] | < 500
CCCNC(=O)N[C@H]1C[C@@H](Nc2nc(NCc3c(F)cccc3F)nc(C)c2-c2nc3c(C4CC4)nccc3s2)[C@H](O)[C@@H]1O [Example 5085] | < 500
CO[C@H](C)CNc1nc(C)c(-c2nc3c(C4CC4)nccc3s2)c(N[C@@H]2C[C@H](C(N)=O)[C@@H](O)[C@H]2O)n1 [Example 5086] | < 500
CCNC(=O)N[C@H]1C[C@@H](Nc2nc(NCC3CC3)nc(C)c2-c2nc3c(C4CC4)nccc3s2)[C@H](O)[C@@H]1O [Example 5087] | < 500
Cc1nc(NCC2CC2)nc(N[C@@H]2C[C@H](NC(=O)NC(C)(C)C)[C@@H](O)[C@H]2O)c1-c1nc2c(C3CC3)nccc2s1 [Example 5088] | < 500
Cc1nc(N[C@H](C)C2CC2)nc(N[C@@H]2C[C@H](NC(=O)NC(C)(C)C)[C@@H](O)[C@H]2O)c1-c1nc2c(C3CC3)nccc2s1 [Example 5089] | < 500
Cc1nc(N[C@H](C)C2CC2)nc(N[C@@H]2C[C@H](NC(=O)NCc3ccc(C(F)(F)F)cc3)[C@@H](O)[C@H]2O)c1-c1nc2c(C3CC3)nccc2s1 [Example 5090] | < 500

SMILES | EC90 [nM]
Cc1nc(NC(C)(C)C)nc(N[C@@H]2C[C@H](NC(=O)NC(C)(C)C)[C@@H](O)[C@H]2O)c1-c1nc2c(C3CC3)nccc2s1 [Example 5091] | < 500
Cc1nc(NCC2CC2)nc(N[C@@H]2C[C@H](NC(=O)Nc3ccccc3)[C@@H](O)[C@H]2O)c1-c1nc2c(C3CC3)nccc2s1 [Example 5092] | < 500
Cc1nc(NCC2CC2)nc(N[C@@H]2C[C@H](NC(=O)NC3CCCC3)[C@@H](O)[C@H]2O)c1-c1nc2c(C3CC3)nccc2s1 [Example 5093] | < 500
CCNC(=O)N[C@H]1C[C@@H](Nc2nc(NC(C)(C)C)nc(C)c2-c2nc3c(C4CC4)nccc3s2)[C@H](O)[C@@H]1O [Example 5094] | < 500
Cc1nc(NC(C)(C)C)nc(N[C@@H]2C[C@H](NC(=O)NC3CC3)[C@@H](O)[C@H]2O)c1-c1nc2c(C3CC3)nccc2s1 [Example 5095] | < 500
Cc1nc(N[C@H](C)C2CC2)nc(N[C@@H]2C[C@H](NC(=O)N(C)C)[C@@H](O)[C@H]2O)c1-c1nc2c(C3CC3)nccc2s1 [Example 5096] | < 500
Cc1nc(NC(C)(C)C)nc(N[C@@H]2C[C@H](NC(=O)N(C)C)[C@@H](O)[C@H]2O)c1-c1nc2c(C3CC3)nccc2s1 [Example 5097] | < 500
Cc1nc(NCC2CC2)nc(N[C@@H]2C[C@H](NC(=O)N(C)C)[C@@H](O)[C@H]2O)c1-c1nc2c(C3CC3)nccc2s1 [Example 5098] | < 500
Cc1nc(NCC2CCC2)nc(N[C@@H]2C[C@H](NC(=O)NC(C)(C)C)[C@@H](O)[C@H]2O)c1-c1nc2c(C3CC3)nccc2s1 [Example 5100] | < 500
COC1(CCNc2nc(C)c(-c3nc4c(C)nccc4s3)c(N[C@@H]3C[C@H](C(C)(C)O)[C@@H](O)[C@H]3O)n2)CCCC1 [Example 5101] | < 500
CO[C@@]1(CNc2nc(C)c(-c3nc4c(C)nccc4s3)c(N[C@@H]3C[C@H](C(C)(C)O)[C@@H](O)[C@H]3O)n2)CCOC1 [Example 5102] | < 500
CO[C@@]1(CNc2nc(C)c(-c3nc4c(C)nccc4s3)c(N[C@@H]3C[C@H](C4(O)CCCC4)[C@@H](O)[C@H]3O)n2)CCOC1 [Example 5103] | < 500
COC[C@@H](C)Nc1nc(C)c(-c2nc3c(C)nccc3s2)c(N[C@@H]2C[C@H](C3(O)CCCC3)[C@@H](O)[C@H]2O)n1 [Example 5104] | < 500
COCCNc1nc(C)c(-c2nc3c(C)nccc3s2)c(N[C@@H]2C[C@H]([C@H](O)C(C)C)[C@@H](O)[C@H]2O)n1 [Example 5105] | < 500
Cc1nc(NCc2cc(F)c(F)cc2F)nc(N[C@@H]2C[C@H]([C@H](O)C(C)C)[C@@H](O)[C@H]2O)c1-c1nc2c(C)nccc2s1 [Example 5106] | < 500
Cc1nc(N)nc(N[C@@H]2C[C@H](C3(O)CCCC3)[C@@H](O)[C@H]2O)c1-c1nc2c(C)nccc2s1 [Example 5107] | < 500
Cc1nc(NC2(C3CCCC3)CC2)nc(N[C@@H]2C[C@H]([C@H](O)C(C)C)[C@@H](O)[C@H]2O)c1-c1nc2c(C)nccc2s1 [Example 5108] | < 500
Cc1nc(NCC2(O)CCCC2)nc(N[C@@H]2C[C@H](C3(O)CCCC3)[C@@H](O)[C@H]2O)c1-c1nc2c(C)nccc2s1 [Example 5110] | < 500
Cc1nc(NCC2(O)CC2)nc(N[C@@H]2C[C@H](C3(O)CCCC3)[C@@H](O)[C@H]2O)c1-c1nc2c(C)nccc2s1 [Example 5111] | < 500
CCO[C@H]1C[C@H](CNc2nc(C)c(-c3nc4c(C)nccc4s3)c(N[C@@H]3C[C@H](C4(O)CCCC4)[C@@H](O)[C@H]3O)n2)C1 [Example 5112] | < 500
Cc1nc(NCC(F)(F)C(F)(F)C(F)(F)F)nc(N[C@@H]2C[C@H](C3(O)CCCC3)[C@@H](O)[C@H]2O)c1-c1nc2c(C)nccc2s1 [Example 5113] | 5000 to 25000
Cc1nc(NCC(F)(F)C(F)(F)F)nc(N[C@@H]2C[C@H](C3(O)CCCC3)[C@@H](O)[C@H]2O)c1-c1nc2c(C)nccc2s1 [Example 5114] | < 500
Cc1nc(NCC2(O)CCOC2)nc(N[C@@H]2C[C@H](C3(O)CCCC3)[C@@H](O)[C@H]2O)c1-c1nc2c(C)nccc2s1 (stereo partly shown) [Example 5115] | < 500
Cc1nc(NCC(F)(F)F)nc(NC2(CO)CCCC2)c1-c1nc2c(C)nccc2s1 [Example 5116] | < 500
Cc1nc(NCc2c(F)cccc2F)nc(NC2(CO)CCCC2)c1-c1nc2c(C)nccc2s1 [Example 5117] | < 500
Cc1nc(NCC2(O)CC2)nc(N[C@@H]2C[C@H](CS(=O)(=O)c3cc(F)cc(F)c3)[C@@H](O)[C@H]2O)c1-c1nc2c(C)nccc2s1 [Example 5118] | < 500
Cc1nc(NCC2(O)CCCC2)nc(N[C@@H]2C[C@H](CS(=O)(=O)c3cc(F)cc(F)c3)[C@@H](O)[C@H]2O)c1-c1nc2c(C)nccc2s1 [Example 5119] | < 500
